Data published in patent US20090221568A1, “Synthesis of Inhibitors of FtsZ” (priority 2005, published 2009).
Where two headings read alike, the source gives them in different places.

Experiments:
S. aureus = conditions: cited from earlier work
E. coli FtsZ [1] = target: T1, E. coli FtsZ (Escherichia coli, UniProt P0A9A6); test: FtsZ GTPase assay (malachite green); format: biochemical
T1 construct: made in house; host or cells: E. coli BL21(λDE3)
Protocol: GTPase Assay: Untagged E. coli FtsZ was expressed from pET-3Z^+ in BL21(λDE3) cells (RayChaudhuri, D.; Park, J. T. Nature 1992, 359, 251-254) and purified using a two-step ammonium sulfate fractionation (Romberg et al. J. Biol. Chem. 2001, 276, 11743-11753). FtsZ GTPase assay was performed essentially as described by Margalit et al. (Margalit et al. Proc. Natl. Acad. Sci. U.S.A. 2004, 101, 11821-11826). Briefly, 2 μM E. coli FtsZ in polymerization buffer (4-morpholinepropanesulfonic acid, pH 6.5, 50 mM KCl, 5 mM MgCl2) was preincubated with or without varying concentrations of test compounds (in dimethyl sulfoxide, DMSO) such that the DMSO concentrations in the samples were ˜2%. The control tubes received 2% DMSO alone. After a 5-min preincubation at 25° C., the reactions were initiated by adding 0.5 mM GTP. Aliquots were withdrawn after 5, 15 and 25 ininute intervals and quenched with 50 mM EDTA before color development with the malachite green solution [2 volumes malachite green (0.8 mg/ml)/1 volume polyvinyl alcohol (23.2 mg/ml)/1 volume ammonium molybdate (57.2 mg/ml in 2H2O:3HCl)/2 volumes H2O]. IC50 values were determined from the relative slopes of GTP hydrolysis at different inhibitor concentrations compared to the control with DMSO only.

M. smegmatis = conditions: cited from earlier work
B. subtilis = conditions: cited from earlier work
E. coli = conditions: dash with footnote b = no significant activity; cited from earlier work
P. aeruginosa = conditions: dash with footnote b = no significant activity; cited from earlier work
E. coli FtsZ [2] = target: T1, E. coli FtsZ; conditions: value from Margalit et al. 2004 (footnote a); read-out: Inhibition of E. coli FtsZ GTPase activity, IC50; cited from earlier work
bacterial strains = conditions: higher MICs indicate that a strain is becoming resistant; cited from earlier work
[3] = 2 μM E. coli FtsZ, 0.5 mM GTP, pH 6.5, 25° C., read-out: Inhibition of E. coli FtsZ GTPase activity, IC50

T1 sequence (P0A9A6 whole entry): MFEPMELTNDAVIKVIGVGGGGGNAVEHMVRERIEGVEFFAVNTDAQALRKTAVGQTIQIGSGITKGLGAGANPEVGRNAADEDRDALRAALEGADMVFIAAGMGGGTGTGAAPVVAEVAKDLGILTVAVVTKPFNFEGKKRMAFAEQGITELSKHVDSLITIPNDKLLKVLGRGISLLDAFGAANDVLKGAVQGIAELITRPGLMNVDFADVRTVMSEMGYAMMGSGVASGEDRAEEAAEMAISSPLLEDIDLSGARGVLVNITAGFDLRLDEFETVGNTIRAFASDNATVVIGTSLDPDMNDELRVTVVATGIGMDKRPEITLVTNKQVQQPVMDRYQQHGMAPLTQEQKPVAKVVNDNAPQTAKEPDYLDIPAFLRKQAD

Compound | Antimicrobial activities (MICs) S. aureus (S. aureus) [µM] | Inhibition of E. coli GTPase activity, in words (E. coli FtsZ [1]) | Antimicrobial activities (MICs) B. subtilis (B. subtilis) [µM] | effective MIC defined by NCCLS (bacterial strains) [µM] | further results
O=C1C[C@@H](c2ccccc2)Oc2c(Cc3ccccc3O)c(O)c(Cc3ccccc3O)c(O)c21 (racemic) [Compound 2, (±)-Dichamanetin] | 1.7 | potent inhibitors | 1.7 | – | IC50 (E. coli FtsZ [1]; [3]): 12.5 ± 0.5 µM; Antimicrobial activities (MICs) M. smegmatis (M. smegmatis): 3.4 µM
O=C1C[C@@H](c2ccccc2)Oc2c(Cc3cc(Cc4ccccc4O)ccc3O)c(O)c(Cc3cc(Cc4ccccc4O)ccc3O)c(O)c21 (racemic) [Compound 3, (±)-2′″-Hydroxy-5″-benzylisouvarinol-B] | 10.7 | potent inhibitors | 2.6 | – | IC50 (E. coli FtsZ [1]): 8.3 ± 0.5 µM; Antimicrobial activities (MICs) E. coli (E. coli): 2.3 µM; Antimicrobial activities (MICs) P. aeruginosa (P. aeruginosa): 15.4 µM; Antimicrobial activities (MICs) M. smegmatis (M. smegmatis): 3.8 µM
CC1(C)CC(=O)c2c(O)c(Cc3ccccc3O)c(O)c(Cc3ccccc3O)c2O1 [5,7-dihydroxy-6,8-bis(2-hydroxybenzyl)-2,2-dimethylchroman-4-one] | – | – | – | – | IC50 (E. coli FtsZ [1]; FIG. 27 legend, test not named, presumably FtsZ GTPase, read-out: IC50): 21 µM
Oc1ccc(Cl)cc1Cc1cc(Cl)cc(Cc2cc(Cl)ccc2O)c1O [Compound 1, Zantrin Z1, reference compound] | 2.5 | – | 1.25 | – | IC50 (E. coli FtsZ [2]): 5 ± 0.5 µM; Antimicrobial activities (MICs) E. coli (E. coli): 20 µM; Antimicrobial activities (MICs) P. aeruginosa (P. aeruginosa): 40 µM
CC(=O)c1c(O)c(Cc2ccccc2O)c(O)c(Cc2ccccc2O)c1O [Compound 11, 2,4,6-Trihydroxy-3,5-di(2′-hydroxybenzyl)-acetophenone] | – | much less potent | – | – | IC50 (E. coli FtsZ [1]; [3]): 60.4 ± 2.2 µM
CC[C@H]1OC(=O)[C@H](C)[C@@H](O[C@H]2C[C@@](C)(OC)[C@@H](O)[C@H](C)O2)[C@H](C)[C@@H](O[C@@H]2O[C@H](C)C[C@H](N(C)C)[C@H]2O)[C@](C)(O)C[C@@H](C)C(=O)[C@H](C)[C@@H](O)[C@]1(C)O [erythromycin] | – | – | – | 0.4 | –
COc1cccc(OC)c1C(=O)N[C@@H]1C(=O)N2[C@@H]1SC(C)(C)[C@@H]2C(=O)O [methicillin] | – | – | – | 0.8 | –
CN[C@H](CC(C)C)C(=O)N[C@H]1C(=O)N[C@@H](CC(N)=O)C(=O)N[C@H]2C(=O)N[C@H]3C(=O)N[C@H](C(=O)N[C@H](C(=O)O)c4cc(O)cc(O)c4-c4cc3ccc4O)[C@H](O)c3ccc(c(Cl)c3)Oc3cc2cc(c3O[C@@H]2O[C@H](CO)[C@@H](O)[C@H](O)[C@H]2O[C@H]2C[C@](C)(N)[C@H](O)[C@H](C)O2)Oc2ccc(cc2Cl)[C@H]1O [vancomycin] | – | – | – | 5.8 | –
